Data on two compounds can be found in patent US20250019503A1, “METAL COMPLEXED CYANURATE GERMICIDAL ADDITIVE FOR POLYMER COMPOSITIONS” (SABIC Global Technologies B.V., priority 2022, published 2025).

For the compound `O=c1nc([O-])n(Cl)c(=O)n1Cl.[Na+]` [NaDCC, sodium dichlorocyanurate], the “most extensive mass loss” value (at 240° C. to 300° C., attributed to pyrolysis/oxidations) is on record as about 40%. For the same compound, the mass loss result (between 55° C. to 100° C., nitrogen and air, attributed to absorbed water) was “around 7%”.

On to `O=c1[n-]c(=O)n(Cl)c(=O)n1Cl.O=c1[n-]c(=O)n(Cl)c(=O)n1Cl.O=c1[n-]c(=O)n(Cl)c(=O)n1Cl.O=c1[n-]c(=O)n(Cl)c(=O)n1Cl.[Cu+2].[Na+].[Na+]` [CuDCC, Copper Dichlorocyanurate], for which the hygroscopicity entry (based on lack of mass loss between 55° C. to 133° C.) was “not hydroscopic”.
